Data reported in the supplement of paper PMC4862054.

Experiments:
Details in all cases: incubation time: 72 h
CAL-120 = experiment: normalised viability (% of control), CellTiter-Blue; higher = more viable cells (100 = DMSO, 0 = benzethonium chloride kill control)
Experimental: (§1)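 DSRT, CellTiter-Blue viability, 72 h incubation. Signal is normalised to DMSO and benzethonium chloride controls. Value is the normalised response at dose 1.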

HCC1143 = experiment: as above
Experimental: as §1

CAL-85-1 [1] = experiment: as above
Experimental: as §1

SK-BR-3 = experiment: as above
Experimental: as §1

DU-4475 [2] = experiment: as above
Experimental: as §1

Hs578T = experiment: as above
Experimental: as §1

MDA-MB-468 = experiment: as above
Experimental: as §1

MDA-MB-436 = experiment: as above
Experimental: as §1

MDA-MB-453 [3] = experiment: as above
Experimental: as §1

BT-549 = experiment: as above
Experimental: as §1

MFM-223 = experiment: as above
Experimental: as §1

BT-474 = experiment: as above
Experimental: as §1

HDQ-P1 [4] = experiment: as above
Experimental: as §1

MDA-MB-231 = experiment: as above
Experimental: as §1

HCC1599 = experiment: as above
Experimental: as §1

CAL-148 [5] = experiment: as above
Experimental: as §1

CAL-51 [6] = experiment: as above
Experimental: as §1

HCC1937 = experiment: as above
Experimental: as §1

CAL-85-1 [7] = experiment: normalised viability (% of control), CellTiter-Blue; higher = more viable cells (about 100 = DMSO control)
Experimental: (§2)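 DSRT, CellTiter-Blue viability, 72 h incubation. Signal is normalised to DMSO and benzethonium chloride controls. Value is the normalised response at dose 9.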

DU-4475 [8] = experiment: as above
Experimental: as §2

MDA-MB-453 [9] = experiment: as above
Experimental: as §2

HDQ-P1 [10] = experiment: as above
Experimental: as §2

CAL-148 [11] = experiment: as above
Experimental: as §2

CAL-51 [12] = experiment: as above
Experimental: as §2

CAL-85-1 [13] = experiment: as above; remark: listed apart in the source
Experimental: (§3)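 DSRT, CellTiter-Blue viability, 72 h incubation. Signal is normalised to DMSO and benzethonium chloride controls. Value is the normalised response at dose 8.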

DU-4475 [14] = experiment: as above; remark: listed apart in the source
Experimental: as §3

MDA-MB-453 [15] = experiment: as above; remark: listed apart in the source
Experimental: as §3

HDQ-P1 [16] = experiment: as above; remark: listed apart in the source
Experimental: as §3

CAL-148 [17] = experiment: as above; remark: listed apart in the source
Experimental: as §3

CAL-51 [18] = experiment: as above; remark: listed apart in the source
Experimental: as §3

SMILES	normalised viability (CAL-85-1 [7]) [%]	normalised viability (DU-4475 [8]) [%]	normalised viability (MDA-MB-453 [9]) [%]	normalised viability (HDQ-P1 [10]) [%]	normalised viability (CAL-148 [11]) [%]	normalised viability (CAL-51 [12]) [%]	normalised viability (CAL-85-1 [13]) [%]	normalised viability (DU-4475 [14]) [%]	normalised viability (MDA-MB-453 [15]) [%]	normalised viability (HDQ-P1 [16]) [%]	normalised viability (CAL-148 [17]) [%]	normalised viability (CAL-51 [18]) [%]	also measured
CC(=O)Nc1ccc(C(=O)Nc2ccccc2N)cc1 [CI-994] (0.1 nM)													normalised viability (CAL-120): 110%; normalised viability (HCC1143): 105%; normalised viability (CAL-85-1 [1]): 98.3%; normalised viability (SK-BR-3): 95.5%; normalised viability (DU-4475 [2]): 93.2%; normalised viability (Hs578T): 117%; normalised viability (MDA-MB-468): 98.9%; normalised viability (MDA-MB-436): 91.2%; normalised viability (MDA-MB-453 [3]): 101%; normalised viability (BT-549): 92.6%; normalised viability (MFM-223): 105%; normalised viability (BT-474): 86.4%; normalised viability (HDQ-P1 [4]): 107%; normalised viability (MDA-MB-231): 91.9%; normalised viability (HCC1599): 92.6%; normalised viability (CAL-148 [5]): 100%; normalised viability (CAL-51 [6]): 89.6%; normalised viability (HCC1937): 102%
CC(=O)Nc1ccc(C(=O)Nc2ccccc2N)cc1 [CI-994] (1000 nM)	98.5	80.7	101	108	96.2	95.3							
N.N.[Cl][Pt][Cl] [Cisplatin] (10000 nM)	99.5	112	97.4	110	105	105							
C[C@@H](Oc1cc(-c2cnn(C3CCNCC3)c2)cnc1N)c1c(Cl)ccc(F)c1Cl [Crizotinib] (10000 nM)	39.5	11.7	24.9	39.6	48.6	31.2							
C[C@]12CC[C@@H]3c4ccc(O)cc4C[C@@H](CCCCCCCCC[S+]([O-])CCCC(F)(F)C(F)(F)F)[C@H]3[C@@H]1CC[C@@H]2O (stereo not given in full) [Fulvestrant] (10000 nM)	99.3	115	66.8	113	102	101							
CC(C)Cn1cnc2c(N)nc3ccccc3c21 [Imiquimod] (1 nM)													normalised viability (CAL-120): 92.5%; normalised viability (HCC1143): 101%; normalised viability (CAL-85-1 [1]): 108%; normalised viability (SK-BR-3): 89.5%; normalised viability (DU-4475 [2]): 110%; normalised viability (Hs578T): 107%; normalised viability (MDA-MB-468): 109%; normalised viability (MDA-MB-436): 107%; normalised viability (MDA-MB-453 [3]): 108%; normalised viability (BT-549): 105%; normalised viability (MFM-223): 97%; normalised viability (BT-474): 90.6%; normalised viability (HDQ-P1 [4]): 104%; normalised viability (MDA-MB-231): 85.8%; normalised viability (HCC1599): 109%; normalised viability (CAL-148 [5]): 98.1%; normalised viability (CAL-51 [6]): 101%; normalised viability (HCC1937): 118%
CC(C)Cn1cnc2c(N)nc3ccccc3c21 [Imiquimod] (10000 nM)	100	109	75.2	105	99	92							
CN[C@@H]1C[C@H]2O[C@@](C)([C@@H]1OC)n1c3ccccc3c3c4c(c5c6ccccc6n2c5c31)C(=O)N[C@H]4O [UCN-01] (3000 nM)							6.08	1.19	20.2	10.2	41.7	6.6	
Clc1ccc(Nc2nnc(Cc3ccncc3)c3ccccc23)cc1 [Vatalanib] (3000 nM)							94	111	75.2	91.8	75	104	
CCC1=C[C@@H]2CN(C1)Cc1c([nH]c3ccccc13)[C@@](C(=O)OC)(c1cc3c(cc1OC)N(C)[C@H]1[C@@](O)(C(=O)OC)[C@H](OC(C)=O)[C@]4(CC)C=CCN5CC[C@]31[C@@H]54)C2 [Vinorelbine] (3000 nM)							37.1	15.8	39.8	32.7	20.1	16.6	
Oc1nc(-c2ccc(C(F)(F)F)cc2)nc2c1CSCC2 [XAV-939] (3000 nM)							94.1	94.1	95.4	76.8	89.8	90.3	
